# Measured values as given in patent publication US12110288B2, “MASP-2 inhibitors and methods of use” (Omeros Corporation, priority 2019, dated 2024).
# Structures can show the parent of a compound that is named as a salt.
# Biological target: T1, MASP-2 (CCP1-CCP2-SP) (Homo sapiens, UniProt O00187)
# T1 construct: 15 μL of Enzyme MASP-2 (CCP1-CCP2-SP) in Assay Buffer
# Assay: Enzymatic Assay for MASP-2
# Format: biochemical
# Conditions: fluorogenic substrate based on C2 cleavage site, room temperature, 20 mM HEPES pH 7.4
# In short: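 Fluorogenic substrate modelled on the C2 cleavage site, run at room temperature in 20 mM HEPES pH 7.4, 140 mM NaCl, 0.1% Tween 20; compounds were added from DMSO serial dilutions before enzyme and substrate. Reactions ran 20 min and were stopped with 0.1 M acetic acid before fluorescence was read. % activity was normalised to DMSO-only and no-enzyme controls; IC50 was taken as Ki, with tight- or slow-binding inhibitors handled separately.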
# T1 sequence (O00187 445-686 limits assumed): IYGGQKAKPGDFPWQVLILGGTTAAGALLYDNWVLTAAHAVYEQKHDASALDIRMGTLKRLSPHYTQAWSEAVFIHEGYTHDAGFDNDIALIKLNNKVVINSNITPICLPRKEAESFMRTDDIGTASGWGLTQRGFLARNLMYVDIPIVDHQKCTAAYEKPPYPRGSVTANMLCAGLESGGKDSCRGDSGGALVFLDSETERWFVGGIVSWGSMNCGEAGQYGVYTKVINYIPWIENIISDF
# T1 sequence (O00187 298-444 partner limits assumed): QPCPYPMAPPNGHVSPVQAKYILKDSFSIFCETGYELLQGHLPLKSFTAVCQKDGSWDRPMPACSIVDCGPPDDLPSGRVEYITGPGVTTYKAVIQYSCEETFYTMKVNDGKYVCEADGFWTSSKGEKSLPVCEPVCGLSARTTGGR
row,SMILES,Ki
1,NC(=O)c1cccc(-c2cnc(NCCc3ccccc3)c(=O)n2CC(=O)NCc2ccc3nc(N)[nH]c3c2)c1 [Compound 15],< 0.5 µM
2,"CS(=O)(=O)NCc1cccc(-c2cnc(NCCc3ccccc3)c(=O)n2CC(=O)NCc2cc3cnccc3[nH]2)c1 [Compound 95, N-((1H-Pyrrolo[3,2-c]Pyridin-2-yl)Methyl)-2-(6-(3-(Methylsulfonamidomethyl)Phenyl)-2-Oxo-3-(Phenethylamino)Pyrazin-1(2H)-yl)Acetamide]",< 0.5 µM
3,"Cc1nc(N)ccc1CNC(=O)Cn1c(Cc2ccccc2)cnc(NCCc2ccccc2)c1=O [Compound 19, N-((6-amino-2-methylpyridin-3-yl)methyl)-2-(6-benzyl-2-oxo-3-(phenethylamino)pyrazin-1(2H)-yl)acetamide trifluoroacetate]",< 0.5 µM
4,Cc1nc(N)ccc1CNC(=O)Cn1c(-c2cccc3cc[nH]c23)cnc(NCCc2ccccc2)c1=O [Compound 85],< 0.5 µM
5,"Cc1nc(N)ccc1CNC(=O)Cn1c(-c2ccc(C#N)cc2)cnc(NCCc2ccccc2)c1=O [Compound 27, N-((6-Amino-2-Methylpyridin-3-yl)Methyl)-2-(6-(4-Cyanophenyl)-2-Oxo-3-(Phenethyl Amino)Pyrazin-1(2H)-yl)Acetamide]",< 0.5 µM
6,"O=C(Cn1c(-c2ccccc2)cnc(NCC2(c3cccc(F)c3)CC2)c1=O)NCc1cc2cnccc2[nH]1 [Compound 64, N-((1H-Pyrrolo[3,2-c]pyridin-2-yl)methyl)-2-(3-(((1-(3-fluorophenyl)cyclopropyl)methyl)amino)-2-oxo-6-phenylpyrazin-1(2H)-yl)acetamide]",< 0.5 µM
7,"O=C(Cn1c(-c2ccccc2)cnc(NC2(c3ccc(F)c(F)c3)CC2)c1=O)NCc1cc2cnccc2[nH]1 [Compound 74, N-((1H-Pyrrolo[3,2-c]pyridin-2-yl)methyl)-2-(3-((1-(3,4-difluorophenyl)cyclopropyl)amino)-2-oxo-6-phenylpyrazin-1(2H)-yl)acetamide trifluoroacetate]",< 0.5 µM
8,"Cc1nc(N)ccc1CNC(=O)Cn1c(C#Cc2ccccc2)cnc(NCCc2ccccc2)c1=O [Compound 26, N-((6-Amino-2-Methylpyridin-3-yl)Methyl)-2-(2-Oxo-3-(Phenethylamino)-6-(Phenylethynyl)Pyrazin-1(2H)-yl)Acetamide]",0.5 to 2.5 µM
9,"COc1ccccc1-c1cnc(NCCc2ccccc2)c(=O)n1CC(=O)NCc1ccc(N)nc1C [Compound 28, N-((6-Amino-2-methylpyridin-3-yl)methyl)-2-(6-(2-methoxyphenyl)-2-oxo-3-(phenethylamino)pyrazin-1(2H)-yl)acetamide hydrochloride]",< 0.5 µM
10,"O=C(Cn1c(-c2cccc(CO)c2)cnc(NCCc2ccccc2)c1=O)NCc1cc2cnccc2[nH]1 [Compound 88, N-((1H-Pyrrolo[3,2-c]pyridin-2-yl)methyl)-2-(6-(3-(hydroxymethyl)phenyl)-2-oxo-3-(phenethylamino)pyrazin-1(2H)-yl)acetamide trifluoroacetate]",< 0.5 µM
11,"O=C(O)CNc1ncc(-c2ccccc2)n(CC(=O)NCc2cc3cnccc3[nH]2)c1=O [Compound 118, (4-(2-(((1H-Pyrrolo[3,2-c]Pyridin-2-yl)Methyl)Amino)-2-Oxoethyl)-3-Oxo-5-Phenyl-3,4-Dihydropyrazin-2-yl)Glycine Trifluoroacetate]",0.5 to 2.5 µM
12,"O=C(Cn1c(-c2cnn(C3CNC3)c2)cnc(NCCc2ccccc2)c1=O)NCc1cc2cnccc2[nH]1 [Compound 112, N-((1H-Pyrrolo[3,2-c]Pyridin-2-yl)Methyl)-2-(6-(1-(Azetidin-3-yl)-1H-Pyrazol-4-yl)-2-Oxo-3-(Phenethylamino)Pyrazin-1(2H)-yl)Acetamide Hydrochloride]",< 0.5 µM
13,"Nc1nc2ccc(CNC(=O)Cn3c(-c4ccccc4)ncc(NCCc4ccccc4)c3=O)cc2[nH]1 [Compound 4, N-((2-Amino-1H-Benzo[d]Imidazol-6-yl)Methyl)-2-(6-Oxo-5-(Phenethylamino)-2-Phenylpyrimidin-1(6H)-yl)Acetamide, Trifluoroacetate]",< 0.5 µM
14,"COC(=O)Cc1cccc(-c2cnc(NCCc3ccccc3)c(=O)n2CC(=O)NCc2cc3cnccc3[nH]2)c1 [Compound 93, Methyl 2-(3-(1-(2(((1H-pyrrolo[3,2-c]pyridin-2-yl)methyl)amino)-2-oxoethyl)-6-oxo-5-(phenethylamino)-1,6-dihydropyrazin-2-yl)phenyl)acetate trifluoroacetate]",< 0.5 µM
15,"O=C(Cn1c(-c2ccccc2)cnc(N2CCC(c3ccccc3)CC2)c1=O)NCc1cc2cnccc2[nH]1 [Compound 140, N-((1H-Pyrrolo[3,2-c]pyridin-2-yl)methyl)-2-(2-oxo-6-phenyl-3-(4-phenylpiperidin-l-yl)pyrazin-1(2H)-yl)acetamide]",< 0.5 µM
16,"Cc1cc2[nH]c(CNC(=O)Cn3c(-c4ccccc4)cnc(NCCc4ccccc4)c3=O)cc2cn1 [Compound 67, N-((6-Methyl-1H-Pyrrolo[3,2-c]Pyridin-2-yl)Methyl)-2-(2-Oxo-3-(Phenethylamino)-6-Phenylpyrazin-1(2H)-yl)Acetamide Trifluoroacetate]",< 0.5 µM

row,SMILES,Ki
1,"O=C(Cn1c(-c2cnn(C3COC3)c2)cnc(NCCc2ccccc2)c1=O)NCc1cc2cnccc2[nH]1 [Compound 90, N-((1H-pyrrolo[3,2-c]pyridin-2-yl)methyl)-2-(6-(1-(oxetan-3-yl)-1H-pyrazol-4-yl)-2-oxo-3-(phenethylamino)pyrazin-1(2H)-yl)acetamide trifluoroacetate]",< 0.5 µM
2,"O=C(Cn1c(-c2ccccc2)cnc(NCC2(c3ccccc3)CC2)c1=O)NCc1cc2cnccc2[nH]1 [Compound 52, N-((1H-Pyrrolo[3,2-c]pyridin-2-yl)methyl)-2-(2-oxo-6-phenyl-3-(((1-phenylcyclopropyl)methyl)amino)pyrazin-1(2H)-yl)acetamide trifluoroacetate]",< 0.5 µM
3,"CCOC(=O)CNc1ncc(-c2ccccc2)n(CC(=O)NCc2cc3cnccc3[nH]2)c1=O [Compound 117, Ethyl (4-(2-(((1H-pyrrolo[3,2-c]pyridin-2-yl)methyl)amino)-2-oxoethyl)-3-oxo-5-phenyl-3,4-dihydropyrazin-2-yl)glycinate]",< 0.5 µM
4,"Cc1nccc2[nH]c(CNC(=O)Cn3c(-c4ccccc4)cnc(NCCc4ccccc4)c3=O)cc12 [Compound 72, trifluoroacetate]",< 0.5 µM
5,"Cn1cc(-c2cnc(NCCc3ccccc3)c(=O)n2CC(=O)NCc2cc(Cl)c3[nH]cnc3c2)cn1 [Compound 130, N-((7-Chloro-1H-Benzo[d]Imidazol-5-yl)Methyl)-2-(6-(1-Methyl-1H-Pyrazol-4-yl)-2-Oxo-3-(Phenethylamino)Pyrazin-1(2H)-yl)Acetamide]",2.5 to 10 µM
6,"Cn1cc(-c2cnc(NCCc3ccccc3)c(=O)n2CC(=O)NCc2cnc3[nH]ccc3c2)cn1 [Compound 131, N-((1H-Pyrrolo[2,3-b]Pyridin-5-yl)Methyl)-2-(6-(1-Methyl-1H-Pyrazol-4-yl)-2-Oxo-3-(Phenethylamino)Pyrazin-1(2H)-yl)Acetamide]",> 10 µM
7,"Cc1nc(N)ccc1CNC(=O)Cn1c(-c2ccccc2)c(Cl)nc(N(C)C)c1=O [Compound 39, N-((6-Amino-2-methylpyridin-3-yl)methyl)-2-(5-chloro-3-(dimethylamino)-2-oxo-6-phenylpyrazin-1(2H)-yl)acetamide]",2.5 to 10 µM
8,"Cn1c(CNC(=O)Cn2c(-c3ccccc3)cnc(NCCc3ccccc3)c2=O)cc2cnccc21 [Compound 46, N-((1-Methyl-1H-Pyrrolo[3,2-c]Pyridin-2-yl)Methyl)-2-(2-Oxo-3-(Phenethylamino)-6-Phenylpyrazin-1(2H)-yl)Acetamide Trifluoroacetate]",< 0.5 µM
9,"O=C(Cn1c(-c2ccccc2)cnc(NCC2(c3ccc(F)cc3)CC2)c1=O)NCc1cc2cnccc2[nH]1 [Compound 59, N-((1H-Pyrrolo[3,2-c]pyridin-2-yl)methyl)-2-(3-(((1-(4-fluorophenyl)cyclopropyl)methyl)amino)-2-oxo-6-phenylpyrazin-1(2H)-yl)acetamide trifluoroacetate]",< 0.5 µM
10,"O=C(Cn1c(-c2ccccc2)cnc(NC2(c3ccccc3)CC2)c1=O)NCc1cc2cnccc2[nH]1 [Compound 66, N-((1H-Pyrrolo[3,2-c]pyridin-2-yl)methyl)-2-(2-oxo-6-phenyl-3-((1-phenylcyclopropyl)amino)pyrazin-1(2H)-yl)acetamide trifluoroacetate]",< 0.5 µM
11,"Cn1cc(-c2cnc(NCCc3ccccc3)c(=O)n2CC(=O)NCc2cc3c(s2)CCNC3)cn1 [Compound 78, 2-(6-(1-Methyl-1H-Pyrazol-4-yl)-2-Oxo-3-(Phenethylamino)Pyrazin-1(2H)-yl)-N-((4,5,6,7-Tetrahydrothieno[3,2-c]Pyridin-2-yl)Methyl)Acetamide]",0.5 to 2.5 µM
12,"COCCNc1ncc(-c2ccccc2)n(CC(=O)NCc2cc3cnccc3[nH]2)c1=O [Compound 120, N-((1H-Pyrrolo[3,2-c]pyridin-2-yl)methyl)-2-(3-((2-methoxyethyl)amino)-2-oxo-6-phenylpyrazin-1(2H)-yl)acetamide trifluoroacetate]",< 0.5 µM
13,"O=C(Cn1c(Br)cnc(NCCc2ccccc2)c1=O)NCc1cc2cnccc2[nH]1 [Compound 109, N-((1H-Pyrrolo[3,2-c]Pyridin-2-yl)Methyl)-2-(6-Bromo-2-Oxo-3-(Phenethylamino)Pyrazin-1(2H)-yl)Acetamide]",< 0.5 µM
14,"O=C(Cn1c(-c2cnn(C3CCC3)c2)cnc(NCCc2ccccc2)c1=O)NCc1cc2cnccc2[nH]1 [Compound 110, N-((1H-Pyrrolo[3,2-c]pyridin-2-yl)methyl)-2-(6-(1-cyclobutyl-1H-pyrazol-4-yl)-2-oxo-3-(phenethylamino)pyrazin-1(2H)-yl)acetamide]",< 0.5 µM
15,"O=C(Cn1c(-c2ccccc2)cnc(NCc2ccc(F)c(F)c2)c1=O)NCc1cc2cnccc2[nH]1 [Compound 70, N-((1H-Pyrrolo[3,2-c]pyridin-2-yl)methyl)-2-(3-((3,4-difluorobenzyl)amino)-2-oxo-6-phenylpyrazin-1(2H)-yl)acetamide trifluoroacetate]",< 0.5 µM
